In patent US20240269086A1, “PERGULARIA TOMENTOSA SILVER NANOPARTICLES” (KING FAISAL UNIVERSITY, priority 2023, published 2024):

Columns and labels:
Assay in all cases: Agar disk diffusion, inhibition zone diameter
Assay type in all cases: cell-based
E. coli = conditions: 25 μg/ml, Nil = No growth
Description: (§1) The agar disk diffusion method was used to investigate the antibacterial activity of the PT-AgNPs against four bacterial strains.

B. cereus = conditions: 25 μg/ml, Nil = No growth
Description: as §1

S. enteritidis = conditions: 6.25 μg/ml (by grid column), Nil = No growth
Description: as §1

S. aureus = conditions: 25 μg/ml, Nil = No growth
Description: as §1

Measured: IZD (mm)

O=C(N[C@H](CO)[C@H](O)c1ccc([N+](=O)[O-])cc1)C(Cl)Cl [Chloramphenicol]
Nil: E. coli | B. cereus | S. enteritidis | S. aureus
